Measurements taken from PubChem BioAssay (NCI).
“And” between values parts separate entries of the source, which are not always exact repeats. Equal entries are not always repeated.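 Interpolation was linear, between the two tested concentrations surrounding the appropriate level; five concentrations were tested over 48 hours in 96-well plates. Abbreviation: GI50, concentration required for 50% inhibition of growth. TGI: total growth inhibition.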

What was measured:
Assay in all cases: NCI tumour cell line growth inhibition, 48 h
OVCAR-5 ovarian = system: OVCAR-5 ovarian
HCC-2998 colon = system: HCC-2998 colon
NCI-H460 lung = system: NCI-H460 lung
SK-MEL-2 melanoma = system: SK-MEL-2 melanoma
HT29 colon = system: HT29 colon
SF-539 CNS = system: SF-539 CNS
CAKI-1 renal = system: CAKI-1 renal
MDA-MB-231 breast = system: MDA-MB-231 breast
OVCAR-3 ovarian = system: OVCAR-3 ovarian
OVCAR-4 ovarian = system: OVCAR-4 ovarian

SMILES	TGI (OVCAR-5 ovarian)	TGI (HCC-2998 colon)	TGI (NCI-H460 lung)	TGI (SK-MEL-2 melanoma)	TGI (HT29 colon)	TGI (SF-539 CNS)	TGI (CAKI-1 renal)	TGI (MDA-MB-231 breast)	TGI (OVCAR-3 ovarian)	TGI (OVCAR-4 ovarian)	GI50 (OVCAR-5 ovarian)	GI50 (HCC-2998 colon)	GI50 (NCI-H460 lung)	GI50 (SK-MEL-2 melanoma)	GI50 (HT29 colon)	GI50 (SF-539 CNS)	GI50 (CAKI-1 renal)	GI50 (MDA-MB-231 breast)	GI50 (OVCAR-3 ovarian)	GI50 (OVCAR-4 ovarian)
CCN1CCCc2cc3c(C(F)(F)F)cc(=O)oc3cc21	> 100 µM	> 100 µM	> 100 µM	> 100 µM	> 100 µM	> 100 µM	> 100 µM	> 100 µM	> 100 µM	> 100 µM										
O=C(Oc1ccc[nH]c1=O)c1cc([N+](=O)[O-])cc([N+](=O)[O-])c1	> 100 µM	> 100 µM	> 100 µM	> 100 µM	> 100 µM	> 100 µM	> 100 µM	> 100 µM	> 100 µM	> 100 µM	> 100 µM	> 100 µM	34 µM	> 100 µM	> 100 µM	> 100 µM	35.7 µM	> 100 µM	> 100 µM	> 100 µM
CNC(=O)OCc1nc(SSC(C)(C)C)n(C)c1COC(=O)NC	21 µM	22.4 µM	26.6 µM	19.5 µM	13.3 µM	10.6 µM	3.94 µM	6.95 µM	4.81 µM	4.3 µM										
O=C(NC(=O)c1c(F)cccc1F)Nc1cccc(Oc2ncc(Cl)cn2)c1	> 100 µM	> 27.3 µM		> 100 µM	> 46.4 µM	> 100 µM	> 100 µM	> 100 µM	> 100 µM	> 100 µM										
Cc1cc(N(CC(C)Br)CC(C)Br)ccc1N=Nc1ccccc1C(=O)O (configuration not stated)	10.2 µM	6.19 µM	11.7 µM	10.2 µM	14.2 µM	4.39 µM	6.9 µM	32.8 µM	47.2 µM	5.53 µM										
N[C@H](C(=O)O)[C@@H]1CC(Cl)=NO1	648 µM	329 µM	> 1000 µM	355 µM	> 811 µM	916 µM	160 µM	> 1000 µM	469 µM	> 653 µM			3.22 µM	27.1 µM	7.44 µM	25.4 µM	23.9 µM		31.4 µM	
CCOc1cc(C(C)(C)C)ccc1C1=N[C@H](c2ccc(Cl)cc2)[C@H](c2ccc(Cl)cc2)N1C(=O)N1CCN(CC#Cc2cccc3c2CN([C@@H]2CCC(=O)NC2=O)C3=O)CC1	> 54.3 µM	> 100 µM	11.7 µM	13.6 µM	> 34.8 µM	> 100 µM	9.59 µM	0.0797 µM	15.9 µM	> 100 µM	4.5 µM	0.905 µM	2.38 µM	2.98 µM	2.41 µM	4.49 µM	0.215 µM	0.0192 µM	2.81 µM	0.101 µM
O=C(/C=C/c1ccccc1)Nc1ncc(Cc2ccccc2Cl)s1	> 100 µM	> 100 µM	> 100 µM	> 100 µM	> 100 µM	0.634 µM	> 100 µM	> 100 µM	0.63 µM	> 100 µM	0.511 µM	0.361 µM	0.333 µM	1.25 µM	0.331 µM	0.223 µM	0.329 µM	0.668 µM	0.226 µM	> 100 µM
COc1cc(C2c3cc4c(cc3OC(C)(N3CCCC3)C2C)OCO4)cc(OC)c1OC (configuration not stated)	> 20.5 µM	2.57 µM	19.2 µM	52.1 µM	0.836 µM	0.716 µM	> 20.2 µM	2.42 µM	0.528 µM	> 100 µM										
CCN(CC)CCCC(CCl)Nc1ccnc2cc(Cl)ccc12 (configuration not stated)	28.6 µM and > 61.3 µM	27.8 µM	56.4 µM and > 100 µM	57.5 µM and > 100 µM	> 100 µM	24.8 µM and 27.5 µM	47.5 µM and 44.8 µM	79.5 µM and > 43.1 µM	34.7 µM and 28 µM	> 100 µM	11.4 µM and 23.5 µM	11.9 µM	19.6 µM and 24.3 µM	25.4 µM and 35 µM	14.7 µM and 6.38 µM	10.7 µM and 11.4 µM	22.1 µM and 16.2 µM	16.3 µM and 5.11 µM	10.9 µM and 6.23 µM	35.8 µM and 30.9 µM
CC1(C)N=C(N)N=C(N)N1c1ccc(CCC(=O)Nc2ccc(S(=O)(=O)F)cc2)c(Cl)c1	> 100 µM	> 100 µM	> 100 µM	> 100 µM	> 100 µM	> 38.7 µM	> 81.1 µM	> 100 µM	> 100 µM	> 100 µM	2.4 µM	0.997 µM	0.0716 µM	36.1 µM	0.15 µM	0.509 µM	7.73 µM	> 64.9 µM	9.86 µM	5.51 µM
NC(CSC(c1ccccc1)(c1ccccc1)c1ccccc1)C(=O)NCC(=O)O (configuration not stated)	> 100 µM	22.2 µM	78.8 µM	7.93 µM	97.6 µM	7.46 µM	> 100 µM	9.42 µM	37.2 µM	95.6 µM	22.5 µM	2.57 µM	4.27 µM	2.71 µM	22 µM	2.54 µM	37.1 µM	2.65 µM	5.15 µM	17.4 µM
COc1ccc2c(c1)OC1=C(C(=O)OC1)C2c1cc(OC)c2c(c1)OCCO2 (configuration not stated)	> 100 µM		> 100 µM	> 100 µM		> 100 µM	> 100 µM	> 94.6 µM	0.0714 µM	> 100 µM	0.126 µM	0.0781 µM	0.0408 µM	0.0483 µM	0.0366 µM	0.048 µM	0.0411 µM	0.156 µM	0.0285 µM	0.173 µM
C[C@]12CCc3sc(Nc4ccc(OC(F)(F)F)cc4)nc3C1=CC[C@@H]1[C@@H]2CC[C@]2(C)C(=O)CC[C@@H]12	40.3 µM	18.6 µM	11.8 µM	11.6 µM	10.9 µM	2.72 µM	13.2 µM	7.84 µM	4.14 µM	25.8 µM	9.06 µM	5.32 µM	3.25 µM	3 µM	2.39 µM	1.05 µM	3.21 µM	2.42 µM	1.94 µM	3.31 µM
C=C(C)C1CC2(C)C(C)CC(O)CC2C(OC(=O)C=C(C)C)C1O (configuration not stated)	> 100 µM	> 100 µM	57.2 µM	> 100 µM	69.8 µM	> 100 µM	> 100 µM	> 100 µM		> 100 µM										
